Laboratory results: the NIST ThermoML archive (doi:10.1021/je900730w)
Numbers after ± are expanded uncertainties.

Key:
[1] = for mass density: 293.15 K, 101.33 kPa, Liquid
[2] = refractive index (Na D-line) (dimensionless); details: 293.15 K; 101.33 kPa; Liquid; Standard Abbe refractometry
[3] = Molar enthalpy of transition or fusion; details: Crystal; DSC

Row | SMILES | mass density ([1]; Vibrating tube method) [kg/m3] | refractive index [2] | Normal melting temperature ([1]; Crystal, DTA) [°C] | Molar enthalpy of transition or fusion [3] [kJ/mol] | mass density [1] [kg/m3]
1 | CCOCCO [2-ethoxyethan-1-ol] | 929 ± 1 | 1.4065 ± 0.0007 |  |  | 
2 | O=P(c1ccccc1)(c1ccccc1)c1cc(O)ccc1O [(2,5-dihydroxyphenyl)diphenyl phosphine oxide] |  |  | 214.60 ± 0.5 | 37.3 ± 1 | 
3 | CC(C)=O [acetone] | 790 ± 1 | 1.359 ± 0.0007 |  |  | 
4 | CCO [ethanol] | 790 ± 1 | 1.366 ± 0.0007 |  |  | 
5 | CO [methanol] |  | 1.3301 ± 0.0007 |  |  | 792 ± 1
6 | Cc1ccccc1 [toluene] | 866 ± 1 | 1.4967 ± 0.0007 |  |  | 
